Assay results published in patent publication US7923465B2, “Cannabinoid receptor ligands, pharmaceutical compositions containing them, and process for their preparation” (priority 2005, dated 2011).

Legend:
hCB2 = hCB2 (Homo sapiens, UniProt P34972); assay: In vitro binding assay using hCB2-CHO membranes, [3H]-CP-55,940 displacement (Protocol IV); set-up: expressed in transfected cells; host or cells: CHO (hCB2-CHO, generated in-house); conditions: 1 h; hCB2-CHO membranes, [3H]-CP-55,940 displacement; read-out: % Displacement Protocol IV
Summary of the method: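 Compounds were tested at a single 300 nM final concentration for displacing 0.75 nM [3H]-CP-55,940 from hCB2-CHO membranes (1 h, 30 °C, 50 mM Tris pH 7.4, 5 mM MgCl2, 1 mM EDTA, 0.1% BSA). Filter-bound radioactivity was counted, with 0.5 μM unlabelled CP-55,940 for nonspecific binding; results are % displacement.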

CB1 = CB1 (Rattus norvegicus, UniProt P20272); assay: Rat CB1 receptor binding using brain membrane, [3H]SR141716A displacement (Protocol I); set-up: CB1 receptor present in a rat brain membrane preparation; from tissue; host or cells: rat brain membrane; inhibition: dose or concentration left out as unconfirmed; conditions: 1 h; rat brain membrane, [3H]SR141716A displacement; read-out: % Displacement Protocol I
Experimental: I. In Vitro Protocol for Rat CB1 Receptor Binding Using Brain Membrane
In this assay, [^3H]SR141716A (5-(4-chlorophenyl)-1-(2,4-dichlorophenyl)-4-methyl-N-(1-piperidyl)pyrazole-3-carboxamide) was used to bind the CB1 receptor present in a rat brain membrane preparation which can be displaced by unlabeled ligands having affinity to the CB1 receptor.
The assay was performed according to the modified method of Thomas et al., 1998 (JPET 285: 285-292). The total reaction mixture ([…]) contained Tris-BSA buffer (50 mM Tris, pH 7.4 with 1.5% BSA) or unlabeled SR141716A […] or test samples […], [^3H] SR141716A (2 nM) and […] of rat brain membrane. The non-specific binding was defined by […] of SR141716A. The assay mixture was incubated at 37° C. for 1 hour. The reaction was then stopped by rapid filtration under vacuum using Whatman GF/B-96 micro filter plate. A scintillation cocktail was added and radioactive counts were measured using a Topcount beta scintillation counter.
The standard and test sample dilutions were made in an assay buffer containing either ethanol or DMSO at a final concentration of 1%.
The percent (%) displacement by a test ligand was calculated by comparing the specific bound values.

hCB2, sequence (P34972 whole entry): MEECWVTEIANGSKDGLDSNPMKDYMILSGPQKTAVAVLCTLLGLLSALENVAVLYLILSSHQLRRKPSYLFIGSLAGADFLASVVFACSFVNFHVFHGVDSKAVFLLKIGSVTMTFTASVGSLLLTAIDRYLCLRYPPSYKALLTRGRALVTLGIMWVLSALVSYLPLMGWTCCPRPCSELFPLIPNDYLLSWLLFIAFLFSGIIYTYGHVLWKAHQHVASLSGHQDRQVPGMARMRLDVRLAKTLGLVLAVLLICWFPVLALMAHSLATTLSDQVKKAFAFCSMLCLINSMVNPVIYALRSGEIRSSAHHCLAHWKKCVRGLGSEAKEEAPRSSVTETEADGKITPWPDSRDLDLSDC
CB1, sequence (P20272 whole entry): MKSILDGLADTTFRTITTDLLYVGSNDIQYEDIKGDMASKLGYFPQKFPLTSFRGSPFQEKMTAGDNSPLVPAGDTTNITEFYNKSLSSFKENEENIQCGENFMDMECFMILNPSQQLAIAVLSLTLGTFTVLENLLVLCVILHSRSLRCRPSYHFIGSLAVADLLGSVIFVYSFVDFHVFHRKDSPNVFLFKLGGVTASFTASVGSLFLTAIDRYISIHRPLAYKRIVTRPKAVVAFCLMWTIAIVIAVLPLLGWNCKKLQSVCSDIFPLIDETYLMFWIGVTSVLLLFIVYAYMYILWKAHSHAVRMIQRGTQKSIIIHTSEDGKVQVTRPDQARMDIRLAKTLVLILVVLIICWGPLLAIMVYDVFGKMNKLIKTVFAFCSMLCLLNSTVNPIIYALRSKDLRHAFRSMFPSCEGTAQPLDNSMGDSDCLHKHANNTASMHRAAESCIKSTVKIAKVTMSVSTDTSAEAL

Compound	inhibition at 0.3 µM (hCB2) [%]	inhibition (CB1) [%]	melting point [°C]
O=C(NN1CCCCC1)c1nn(-c2ccccc2Cl)c2c1C1CCC2C1 (centres unmarked) [Example 205, N(3)-Piperidino-1-(2-chlorophenyl)-4,5,6,7-tetrahydro-1H-4,7-methano-indazole-3-carboxamide]	15.9	-12.7	232
O=C(NNc1ccc(Cl)cn1)c1nn(-c2ccc(Cl)cc2)c2c1C1CC3CC(C1)CC2C3 [Example 135, N(7)-(5-Chloro-2-pyridylamino)-5-(4-chlorophenyl)-5,6-diazatetracyclo[7.3.1.1^3,11.0^4,8]tetradeca-4(8),6-diene-7-carboxamide]	6.48	20.5	130 to 135
Cc1ccc(-n2nc(C(=O)NNc3ccc(Cl)cc3Cl)c3c2C2CC4CC(CC3C4)C2)cc1 [Example 161, N(7)-(2,4-Dichlorophenylamino)-5-(4-methylphenyl)-5,6-diazatetracyclo[7.3.1.1^3,11.0^4,8]tetradeca-4(8),6-diene-7-carboxamide]	39.4	27.9	208 to 215
O=C(Nn1cnnc1)c1nn(-c2ccc(Cl)cc2Cl)c2c1C1CCC2C1 (centres unmarked) [Example 240, N(3)-(4H-1,2,4-triazol-4-yl)-1-(2,4-dichlorophenyl)-4,5,6,7-tetrahydro-1H-4,7-methano-indazole-3-carboxamide]	7.98	1.5	231 to 233
O=C(NNc1ccccc1Br)c1nn(-c2ccc(Cl)cc2Cl)c2c1C1CC3CC(C1)CC2C3 [Example 176, N(7)-(2-Bromophenylamino)-5-(2,4-dichlorophenyl)-5,6-diazatetracyclo[7.3.1.1^3,11.0^4,8]tetradeca-4(8),6-diene-7-carboxamide]	30.5	65.6	196 to 199
O=C(NNc1ccc(Cl)cc1)c1n[nH]c2c1C1(c3ccc(Cl)cc3)CCC2C1 (centres unmarked) [Example 229, N(3)-[(4-Chlorophenyl)amino]-4-(4-chlorophenyl)-4,5,6,7-tetrahydro-1H-4,7-methano-indazole-3-carboxamide]	24.6	47.1	202 to 205
O=C(NNc1ccccc1)c1n[nH]c2c1C1(c3ccccc3)CCC2C1 (centres unmarked) [Example 204, N(3)-Phenylamino-4-phenyl-4,5,6,7-tetrahydro-1H-4,7-methano-indazole-3-carboxamide]	10.5	-10.3	189
O=C(NNc1ccc(Cl)cc1Cl)c1nn(-c2ccc(Cl)cc2Cl)c2c1C1CC3CC(C1)CC2C3 [Example 175, N(7)-(2,4-Dichlorophenylamino)-5-(2,4-dichlorophenyl)-5,6-diazatetracyclo[7.3.1.1^3,11.0^4,8]tetradeca-4(8),6-diene-7-carboxamide]	18.5	66	153 to 156
O=C(NNc1ccc(Cl)c(Cl)c1)c1nn(-c2ccc(Cl)cc2Cl)c2c1C1CCC2C1 (centres unmarked) [Example 262, N(3)-[(3,4-Dichlorophenyl)amino]-1-(2,4-dichlorophenyl)-4,5,6,7-tetrahydro-1H-4,7-methano-indazole-3-carboxamide]	32.6	-1.6	176 to 179
O=C(NNc1ccc(F)cc1)c1nn(-c2ccc(Cl)cc2)c2c1C1CCC2C1 (centres unmarked) [Example 234, N(3)-[(4-Fluorophenyl)amino]-1-(4-chlorophenyl)-4,5,6,7-tetrahydro-1H-4,7-methano-indazole-3-carboxamide]	10.6	36.3	212
O=C(NN1CCOCC1)c1nn(-c2ccc(Cl)cc2)c2c1C1CC3CC(C1)CC2C3 [Example 103, N(7)-Morpholino-5-(4-chlorophenyl)-5,6-diazatetracyclo[7.3.1.1^3,11.0^4,8]tetradeca-4(8),6-diene-7-carboxamide]	6.99	22.2	220
O=C(NCc1ccccn1)c1nn(-c2ccc(Cl)cc2)c2c1C1CC3CC(C1)CC2C3 [Example 120, N(7)-(2-Pyridylmethyl)-5-(4-chlorophenyl)-5,6-diazatetracyclo[7.3.1.1^3,11.0^4,8]tetradeca-4(8),6-diene-7-carboxamide]	9.18	30.4	187
O=C(NCc1ccccc1)c1nn(-c2ccccc2Br)c2c1C1CC3CC(C1)CC2C3 [Example 102, N(7)-Benzyl-5-(2-bromophenyl)-5,6-diazatetracyclo[7.3.1.1^3,11.0^4,8]tetradeca-4(8),6-diene-7-carboxamide]	0.74	27.3	20
COc1ccc(-n2nc(C(=O)NNc3ccc(Cl)cc3Cl)c3c2C2CC4CC(CC3C4)C2)cc1 [Example 165, N(7)-(2,4-Dichlorophenylamino)-5-(4-methoxyphenyl)-5,6-diazatetracyclo[7.3.1.1^3,11.0^4,8]tetradeca-4(8),6-diene-7-carboxamide]	45.3	14.2	199
O=C(NCc1ccccc1)c1nn(-c2ccc(F)cc2)c2c1C1CCC2C1 (centres unmarked) [Example 280, N(3)-Benzyl-1-(4-fluorophenyl)-4,5,6,7-tetrahydro-1H-4,7-methano-indazole-3-carboxamide]		33	104
O=C(NNc1ccc(F)cc1)c1nn(-c2ccc(Cl)cc2)c2c1C1CC3CC(C1)CC2C3 [Example 130, N(7)-(4-Fluorophenylamino)-5-(4-chlorophenyl)-5,6-diazatetracyclo[7.3.1.1^3,11.0^4,8]tetradeca-4(8),6-diene-7-carboxamide]		60.6	125 to 127
O=C(Nc1ccccc1)c1nn(-c2ccc(Cl)cc2Cl)c2c1C1CCC2C1 (centres unmarked) [Example 243, N(3)-Phenyl-1-(2,4-dichlorophenyl)-4,5,6,7-tetrahydro-1H-4,7-methano-indazole-3-carboxamide]		23.5	66 to 68
O=C(NCc1ccc(Br)cc1)c1nn(-c2ccc(Cl)cc2)c2c1C1CCC2C1 (centres unmarked) [Example 225, N(3)-(4-Bromobenzyl)-1-(4-chlorophenyl)-4,5,6,7-tetrahydro-1H-4,7-methano-indazole-3-carboxamide]		31.1	181 to 183
COc1ccccc1NC(=O)c1nn(-c2ccc(Cl)cc2)c2c1C1CCC2C1 (centres unmarked) [Example 218, N(3)-(2-Methoxyphenyl)-1-(4-chlorophenyl)-4,5,6,7-tetrahydro-1H-4,7-methano-indazole-3-carboxamide]		29.9	149 to 151
O=C(NN1CCCCC1)c1nn(-c2ccc(F)cc2F)c2c1C1CCC2C1 (centres unmarked) [Example 289, N(3)-Piperidino-1-(2,4-difluorophenyl)-4,5,6,7-tetrahydro-1H-4,7-methano-indazole-3-carboxamide]		71.3	143
O=C(NNc1ccccc1)c1nn(-c2ccc(F)cc2F)c2c1C1CCC2C1 (centres unmarked) [Example 285, N(3)-Phenylamino-1-(2,4-difluorophenyl)-4,5,6,7-tetrahydro-1H-4,7-methano-indazole-3-carboxamide]		61.9	161
